Laboratory results as given in ChEMBL document CHEMBL6127117, “Divergent Total Synthesis of Isoflavone Natural Products and Their Potential as Therapeutic Agents for TTR Amyloidosis” (J Nat Prod, 2024).
The source made the active and inactive calls. No cut-off for these calls is given here.

Legend:
[1] = biological target: Transthyretin (Homo sapiens) (UniProt P02766); assay: Binding affinity to TTR in human plasma assessed as stabilization of TTR tetramer by measuring fluorescence intensity measured after 6 hrs by absorbance based analysis; format: cell-free; conditions: dose 20-100 µM
[2] = tested on: Transthyretin (Homo sapiens), P02766 [V50M]; assay: Inhibition of acid mediated TTR V30M mutant (unknown origin) aggregation under pH 4.7 at 20 uM measured upto 6 days by thioflavin-T fluorescence assay; conditions: time <= 6.0 day
[3] = biological target: Transthyretin (Homo sapiens) (UniProt P02766); assay: Binding affinity to TTR in human plasma assessed as stabilization of TTR tetramer by measuring fluorescence intensity at 50 uM measured after 6 hrs by absorbance based analysis relative to control; format: cell-free
[4] = biological target: Transthyretin (Homo sapiens) (UniProt P02766); assay: Binding affinity to TTR in human plasma assessed as stabilization of TTR tetramer by measuring fluorescence intensity at 20 uM measured after 6 hrs by absorbance based analysis relative to control; format: cell-free
[5] = biological target: Transthyretin (Homo sapiens) (UniProt P02766); assay: Binding affinity to TTR in human plasma assessed as stabilization of TTR tetramer by measuring fluorescence intensity at 100 uM measured after 6 hrs by absorbance based analysis relative to control; format: cell-free

SMILES | Activity [1] | inhibition [2] | Activity [3] | Activity [4] | Activity [5]
CC(C)=CCc1c2c(c(O)c3c(=O)c(-c4ccc(O)c(O)c4)coc13)C=CC(C)(C)O2 | Dose-Dependent Effect | Active | – | – | –
CC(C)=CCc1c2c(c3occ(-c4ccc(O)cc4O)c(=O)c3c1O)C=CC(C)(C)O2 | Dose-Dependent Effect | Active | 50% | 70% | 35%
C=CC(C)(C)c1cc(-c2coc3cc4c(c(O)c3c2=O)C=CC(C)(C)O4)ccc1O | Dose-Dependent Effect | inactive | – | – | –
CC(C)=CCc1cc(-c2coc3cc4c(c(O)c3c2=O)C=CC(C)(C)O4)ccc1O | Dose-Dependent Effect | inactive | – | – | –
CC1(C)C=Cc2c(cc3occ(-c4ccc(O)cc4)c(=O)c3c2O)O1 | Dose-Dependent Effect | Active | – | – | –

Other lines, results leading:

Activity [1] | inhibition [2] | Activity [3] | Activity [4] | Activity [5] | SMILES
Dose-Dependent Effect | inactive | – | – | – | CC(C)=CCc1cc(-c2coc3c4c(cc(O)c3c2=O)OC(C)(C)C=C4)ccc1O
Dose-Dependent Effect | inactive | – | – | – | CC(C)=CCOc1ccc(-c2coc3c4c(cc(O)c3c2=O)OC(C)(C)C=C4)cc1
Dose-Dependent Effect | inactive | – | – | – | CC(C)=CCOc1ccc(-c2coc3cc4c(c(O)c3c2=O)C=CC(C)(C)O4)cc1
Dose-Dependent Effect | Active | – | – | – | CC1(C)C=Cc2c(cc(O)c3c(=O)c(-c4ccc(O)cc4)coc23)O1
